According to EP3478687B1 (Daewoong Pharmaceutical Co., Ltd., priority 2016, dated 2018):

Assays:
[1] = target: T1, Recombinant purified human JAK3 (Homo sapiens, UniProt P52333); experiment: JAK3 kinase inhibitory activity, ADP-Glo kinase assay (Promega V9441); assay type: biochemical; conditions: for IC50: ATP 5 uM, 4 ng JAK3 per reaction, 1 hour 30 °C, chemiluminescence; for inhibition at 0.1 µM: @100nM compound, printed in the JAK3 IC50 column
T1 construct: purchased Promega V9441
T1 sequence (P52333 1-1124): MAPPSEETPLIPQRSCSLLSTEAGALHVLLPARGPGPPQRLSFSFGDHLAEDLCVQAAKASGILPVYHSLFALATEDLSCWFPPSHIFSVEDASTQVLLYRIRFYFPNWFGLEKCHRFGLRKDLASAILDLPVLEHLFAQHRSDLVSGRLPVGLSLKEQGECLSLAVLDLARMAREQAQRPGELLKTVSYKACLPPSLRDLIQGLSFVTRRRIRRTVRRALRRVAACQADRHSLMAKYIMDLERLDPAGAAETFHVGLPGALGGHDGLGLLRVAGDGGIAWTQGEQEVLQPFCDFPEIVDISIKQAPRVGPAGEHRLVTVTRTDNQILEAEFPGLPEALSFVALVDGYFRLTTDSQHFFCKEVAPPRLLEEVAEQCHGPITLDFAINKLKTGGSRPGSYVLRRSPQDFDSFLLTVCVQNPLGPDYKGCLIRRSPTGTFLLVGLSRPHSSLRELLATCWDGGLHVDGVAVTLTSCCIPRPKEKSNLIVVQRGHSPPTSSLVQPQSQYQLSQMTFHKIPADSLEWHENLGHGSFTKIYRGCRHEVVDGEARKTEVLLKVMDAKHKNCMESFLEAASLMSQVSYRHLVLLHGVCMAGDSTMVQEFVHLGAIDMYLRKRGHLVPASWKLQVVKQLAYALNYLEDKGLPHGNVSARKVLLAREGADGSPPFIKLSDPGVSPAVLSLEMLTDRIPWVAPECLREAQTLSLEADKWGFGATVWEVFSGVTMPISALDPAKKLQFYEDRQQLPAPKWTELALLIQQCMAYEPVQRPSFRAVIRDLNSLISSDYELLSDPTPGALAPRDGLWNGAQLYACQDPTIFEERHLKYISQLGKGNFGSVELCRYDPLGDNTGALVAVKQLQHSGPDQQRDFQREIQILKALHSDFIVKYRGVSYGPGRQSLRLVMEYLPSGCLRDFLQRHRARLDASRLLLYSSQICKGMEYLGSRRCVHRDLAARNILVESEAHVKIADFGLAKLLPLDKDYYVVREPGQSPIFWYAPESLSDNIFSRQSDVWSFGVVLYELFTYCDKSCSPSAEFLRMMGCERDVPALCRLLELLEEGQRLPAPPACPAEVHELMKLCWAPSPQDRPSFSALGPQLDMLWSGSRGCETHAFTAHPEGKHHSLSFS
Procedure, shortened: (§1)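 Recombinant human kinases in Tris pH 7.5 buffer with MgCl2, BSA and DTT (MnCl2 added for BTK), 4 ng JAK3 or 8 ng BTK per reaction. Poly(Glu4,Tyr1) 0.2 µg/µL with 5 µM (JAK3) or 10 µM (BTK) ATP, 1% DMSO, 1 h at 30 °C. ADP-Glo luminescence used to derive IC50.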

[2] = target: T2, Recombinant purified human BTK (Homo sapiens, UniProt Q06187); experiment: BTK kinase inhibitory activity, ADP-Glo kinase assay (Promega V9071); assay type: biochemical; conditions: for IC50: ATP 10 uM, 8 ng BTK per reaction, 1 hour 30 °C, chemiluminescence
T2 construct: purchased Promega V9071
T2 sequence (Q06187 whole entry): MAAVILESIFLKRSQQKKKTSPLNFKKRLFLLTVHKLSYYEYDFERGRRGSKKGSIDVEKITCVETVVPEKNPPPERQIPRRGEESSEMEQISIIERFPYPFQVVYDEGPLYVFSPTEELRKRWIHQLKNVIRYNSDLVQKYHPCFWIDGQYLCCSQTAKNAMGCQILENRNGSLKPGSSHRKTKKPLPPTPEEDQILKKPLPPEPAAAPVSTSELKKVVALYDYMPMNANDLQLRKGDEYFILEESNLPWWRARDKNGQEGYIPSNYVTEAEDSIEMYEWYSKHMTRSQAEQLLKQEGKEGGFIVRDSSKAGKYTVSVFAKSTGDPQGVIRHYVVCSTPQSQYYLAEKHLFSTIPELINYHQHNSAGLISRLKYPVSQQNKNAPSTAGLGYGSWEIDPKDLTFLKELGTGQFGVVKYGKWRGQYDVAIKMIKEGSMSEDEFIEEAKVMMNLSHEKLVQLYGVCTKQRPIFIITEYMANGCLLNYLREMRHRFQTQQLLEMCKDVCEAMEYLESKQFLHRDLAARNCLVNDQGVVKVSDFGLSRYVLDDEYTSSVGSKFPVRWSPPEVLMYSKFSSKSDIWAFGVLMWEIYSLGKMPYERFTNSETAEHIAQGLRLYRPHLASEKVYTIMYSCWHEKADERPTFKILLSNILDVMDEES
Procedure, shortened: as §1

Row | Compound | IC50 [1] | IC50 [2] | inhibition at 0.1 µM [1] | inhibition at 0.1 µM ([2]; @100nM compound)
1 | C=CC(=O)N1CCC[C@@H](Nc2nc(Nc3cnn(CCN(CC)CC)c3)nc3[nH]ncc23)C1 [Example 145, (R)-1-(3-((6-((1-(2-(diethylamino)ethyl)-1H-pyrazol-4-yl)amino)-1H-pyrazolo[3,4-d]pyrimidin-4-yl)amino)piperidin-1-yl)prop-2-en-1-one] | 1.7 nM | 1.4 nM |  | 
2 | CCn1cc(Nc2nc(O[C@@H]3CCCN(C(=O)/C(C#N)=C/C4CC4)C3)c3c(C#N)c[nH]c3n2)cn1 [Example 157, (R,E)-4-((1-(2-cyano-3-cyclopropylacryloyl)piperidin-3-yl)oxy)-2-((1-ethyl-1H-pyrazol-4-yl)amino)-7H-pyrrolo[2,3-d]pyrimidine-5-carbonitrile] | 0.6 nM | 1.4 nM |  | 
3 | C=CC(=O)N1CCC[C@@H](Nc2nc(Nc3cnn(C)c3)nc3[nH]nc(SC)c23)C1 [Example 191, (R)-1-(3-((6-((1-methyl-1H-pyrazol-4-yl)amino)-3-(methylthio)-1H-pyrazolo [3,4-d]pyrimidin-4-yl)amino)piperidin-1-yl)prop-2-en-1-one] | 4.2 nM | 0.76 nM |  | 
4 | C=CC(=O)N1CCC[C@@H](Nc2nc(Nc3cc(C)ns3)nc3[nH]ccc23)C1 [Example 75, (R)-1-(3-((2-((3-methylisothiazol-5-yl)amino)-7H-pyrrolo[2,3-d]pyrimidin-4-yl)amino)piperidin-1-yl)prop-2-en-1-one] | 0.2 nM | 4.1 nM |  | 
5 | C=CC(=O)N1CC[C@@H](F)[C@@H](Nc2nc(Nc3cnn(CC)c3)nc3[nH]ncc23)C1 [Example 77, 1-((3S,4R)-3-((6-((1-ethyl-1H-pyrazol-4-yl)amino)-1H-pyrazolo [3,4-d]pyrimidin-4-yl)amino)-4-fluoropiperidin-1-yl)prop-2-en-1-one] | 6 nM | 1.1 nM |  | 
6 | C=CC(=O)N1CCC[C@@H](N(C)c2nc(Nc3cnoc3)nc3[nH]nc(Cl)c23)C1 [Example 119] | 32.5 nM | 11.1 nM |  | 
7 | C=CC(=O)N1CCC[C@@H](Nc2nc(Nc3cnn(C(C)C)c3)nc3[nH]nc(Cl)c23)C1 [Example 50, (R)-1-(3-(3-chloro-6-(1-isopropyl-1H-pyrazol-4-ylamino)-1H-pyrazolo[3,4-d]pyrimidin-4-ylamino)piperidin-1-yl)prop-2-en-1-one] | 0.8 nM | 1.8 nM |  | 
8 | CCn1cc(Nc2nc(S[C@@H]3CCCN(C(=O)/C(C#N)=C/C4CC4)C3)c3cn[nH]c3n2)cn1 [Example 176, (R,E)-3-cyclopropyl-2-(3-((6-((1-ethyl-1H-pyrazol-4-yl)amino)-1H-pyrazolo[3,4-d]pyrimidin-4-yl)thio)piperidine-1-carbonyl)acrylonitrile] | 42.1 nM | 3 nM |  | 
9 | CCn1cc(Nc2nc(S[C@@H]3CCCN(C(=O)/C(C#N)=C/C4CC4)C3)c3cc[nH]c3n2)cn1 [Example 173, (R,E)-3-cyclopropyl-2-(3-((2-((1-ethyl-1H-pyrazol-4-yl)amino)-7H-pyrrolo[2,3-d]pyrimidin-4-yl)thio)piperidine-1-carbonyl)acrylonitrile] | 1 nM | 6 nM |  | 
10 | CCn1cc(Nc2nc(S[C@@H]3CCCN(C(=O)/C(C#N)=C/C(C)C)C3)c3c(Cl)c[nH]c3n2)cn1 [Example 180, (R,E)-2-(3-((5-chloro-2-((1-ethyl-1H-pyrazol-4-yl)amino)-7H-pyrrolo[2,3-d]pyrimidin-4-yl)thio)piperidine-1-carbonyl)-4-methylpent-2-enenitrile] | 1.5 nM | 3.1 nM |  | 
11 | C=CC(=O)N1CCC[C@@H](Nc2nc(Nc3ccc(N4CCN(C)CC4)cc3)nc3[nH]ncc23)C1 [Example 30, (R)-1-(3-(6-(4-(4-methylpiperazin-1-yl)phenylamino)-1H-pyrazolo [3,4-d]pyrimidin-4-ylamino)piperidin-1-yl)prop-2-en-1-one] |  | 6 nM | 52.6% | 
12 | C=CC(=O)N1CCC[C@@H](Nc2nc(Nc3cnn(CCC)c3)nc3[nH]ncc23)C1 [Example 73, (R)-1-(3-((6-((1-propyl-1H-pyrazol-4-yl)amino)-1H-pyrazolo[3,4-d]pyrimidin-4-yl)amino)piperidin-1-yl)prop-2-en-1-one] | 4.4 nM | 1.1 nM |  | 
13 | CCn1cc(Nc2nc(N[C@H]3CN(C(=O)/C(C#N)=C/C(C)C)CC[C@H]3C)c3c(Cl)n[nH]c3n2)cn1 [Example 170, (E)-2-((3R,4R)-3-((3-chloro-6-((1-ethyl-1H-pyrazol-4-yl)amino)-1H-pyrazolo[3,4-d]pyrimidin-4-yl)amino)-4-methylpiperidine-1-carbonyl)-4-methylpent-2-enenitrile] | 11.4 nM | 2.9 nM |  | 
14 | CCn1cc(Nc2nc(N[C@H]3CN(C(=O)CCl)CC[C@H]3C)c3c(Cl)n[nH]c3n2)cn1 [Example 183, 2-chloro-1-((3R,4R)-3-((3-chloro-6-((1-ethyl-1H-pyrazol-4-yl)amino)-1H-pyrazolo [3,4-d]pyrimidin-4-yl)amino)-4-methylpiperidin-1-yl)ethan-1-one] | 0.8 nM | 1.6 nM |  | 
15 | C=CC(=O)N1CCC[C@@H](Sc2nc(Nc3cnn(CC)c3)nc3[nH]ncc23)C1 [Example 105, (R)-1-(3-((6-((1-ethyl-1H-pyrazol-4-yl)amino)-1H-pyrazolo [3,4-d]pyrimidin-4-yl)thio)piperidin-1-yl)prop-2-en-1-one] | 3.6 nM | 1.9 nM |  | 
16 | CCn1cc(Nc2nc(N(C)[C@@H]3CCCN(C(=O)/C(C#N)=C/C(C)C)C3)c3c(Cl)n[nH]c3n2)cn1 [Example 168] | 18 nM | 4.3 nM |  | 
17 | C=CC(=O)N1CCC[C@@H](Sc2nc(Nc3cnn(CC(F)F)c3)nc3[nH]nc(Cl)c23)C1 [Example 108] | 0.6 nM | 1.3 nM |  | 
18 | C=CC(=O)N1CCC[C@@H](N(C)c2nc(Nc3cnn(CC)c3)nc3[nH]nc(Cl)c23)C1 [Example 118, (R)-1-(3-((3-chloro-6-((1-ethyl-1H-pyrazol-4-yl)amino)-1H-pyrazolo[3,4-d]pyrimidin-4-yl)(methyl)amino)piperidin-1-yl)prop-2-en-1-one] | 3.2 nM | 1.3 nM |  | 
19 | CCn1cc(Nc2nc(N[C@@H]3CCCN(C(=O)/C(C#N)=C/C4CC4)C3)c3c(F)c[nH]c3n2)cn1 [Example 182] | 2.3 nM | 2.1 nM |  | 
20 | C=CC(=O)N1CCC[C@@H](Nc2nc(Nc3cnn(CCN4CCOCC4)c3)nc3[nH]ncc23)C1 [Example 72, (R)-1-(3-((6-((1-(2-morpholinoethyl)-1H-pyrazol-4-yl)amino)-1H-pyrazolo[3,4-d]pyrimidin-4-yl)amino)piperidin-1-yl)prop-2-en-1-one] | 2.2 nM | 1.1 nM |  | 
21 | C=CC(=O)N1CCC[C@@H](Nc2nc(Nc3cnn(CCC)c3)nc3[nH]nc(Cl)c23)C1 [Example 51, (R)-1-(3-(3-chloro-6-(1-propyl-lH-pyrazol-4-ylamino)-1H-pyrazolo [3,4-d]pyrimidin-4-ylamino)piperidin-1-yl)prop-2-en-1-one] | 0.8 nM | 1.8 nM |  | 
22 | C=CC(=O)N1CCC[C@@H](Nc2nc(Nc3cccc(-n4nc(C)cc4C)c3)nc3[nH]ccc23)C1 [Example 10, (R)-1-(3-(2-(3-(3,5-dimethyl-1H-pyrazol-1-yl)phenylamino)-7H-pyrrolo [2,3-d]pyrimidin-4-ylamino)piperidin-1-yl)prop-2-en-1-one] |  |  | 32.8% | 23.7%
23 | C=CC(=O)N1CCC[C@@H](Nc2nc(Nc3cnn(CC#N)c3)nc3[nH]nc(Cl)c23)C1 [Example 52, (R)-2-(4-(4-(1-acryloylpiperidin-3-ylamino)-3-chloro-1H-pyrazolo[3,4-d]pyrimidin-6-ylamino)-1H-pyrazol-1-yl)acetonitrile] | 0.2 nM | 0.8 nM |  | 
24 | C=CC(=O)N1CC[C@@H](C)[C@@H](Nc2nc(Nc3cnn(C4CC4)c3)nc3[nH]nc(Cl)c23)C1 [Example 94, 1-((3R,4R)-3-((3-chloro-6-((1-cyclopropyl-1H-pyrazol-4-yl)amino)-1H-pyrazolo[3,4-d]pyrimidin-4-yl)amino)-4-methylpiperidin-1-yl)prop-2-en-1-one] | 4.5 nM | 1.7 nM |  | 
